From article PMC6131557, “Selective Cytotoxicity of Dihydroorotate Dehydrogenase Inhibitors to Human Cancer Cells Under Hypoxia and Nutrient-Deprived Conditions” (Frontiers in Pharmacology, 2018)
Like-named read-outs stand apart in the source and are kept apart here.

Experiments:
[1] = test system: NCI-H460; assay: 39-cancer cell panel assay: NCI-H460; format: cell-based; conditions: Homo sapiens, Lu
[2] = test system: OVCAR-4; assay: 39-cancer cell panel assay: OVCAR-4; format: cell-based; conditions: Homo sapiens, Ov
[3] = test system: MKN7; assay: 39-cancer cell panel assay: MKN7; format: cell-based; conditions: Homo sapiens, MKN-7, St
[4] = Cytotoxicity assay (Cell Counting Kit-8 / WST-8) on DLD-1 cells; format: cell-based, human; conditions: human, DLD-1 colorectal adenocarcinoma cells; DLD-1, original medium, normal oxygen, 100 μM, 24 h
Procedure: (§1) For hypoxia and nutrient-deprived culture conditions, cells were incubated under 1% oxygen in glucose and glutamine-free DMEM (Gibco) without FBS.
(§2) DLD-1 or HDF cells were seeded at 2.5 × 10^4 cells/well on a 96-well plate with normal medium, and cultured overnight under normal culture condition. The cells were washed with PBS and the medium was replaced to either normal medium or glucose and glutamine-free DMEM without FBS. Test compounds or DMSO as a control were added to the wells. The cells in normal medium were cultured under normal culture conditions, while cells in nutrient-deprived medium were cultured under hypoxia condition. After 24 or 48 h incubation, the cells were washed with PBS, 100 μl of fresh normal medium, and 10 μl of Cell Counting Kit-8 solution (Donjindo, Japan) was added to each well. After 3 h incubation under normal culture condition, the absorbance was measured at 450 nm using SpectraMax M2e-TUY microplate reader (Molecular Devices). Cell viability of test wells was calculated based on absorbance of control wells containing DMSO according to manufacturer’s protocol.

[5] = test system: DLD-1 cells; assay: as above; format: cell-based, human; conditions: for IC50: Homo sapiens
Procedure: as §1, §2

[6] = test system: DMS273; assay: 39-cancer cell panel assay: DMS273; format: cell-based; conditions: Homo sapiens, DMS-273, Lu
[7] = test system: HCC2998; assay: 39-cancer cell panel assay: HCC2998; format: cell-based; conditions: Homo sapiens, HCC 2998, Co
[8] = target: Complex II–III; assay: Succinate-cytochrome c reductase (complexes II–III) activity, bovine mitochondria; format: biochemical
Procedure: (§3) Recombinant human DHODH was purified, crystallized, and assayed as previously described ([Inaoka et al., 2016]) without modification. Bovine mitochondrial fractions were prepared as previously described ([Kita et al., 1988]) and NADH dehydrogenase (complex I), succinate:quinone reductase (complex II), quinol oxidase (complexes III–IV), NADH-cytochrome c reductase (complexes I–III), and succinate-cytochrome c (complexes II–III) activities were assayed following an established method ([Takamiya et al., 1986]; [Miyadera et al., 2001]; [Matsumoto et al., 2008]; [Kido et al., 2010]; [Nihashi et al., 2017]).

[9] = target: Complexes I–III; assay: NADH-cytochrome c reductase (complexes I–III) activity, bovine mitochondria; format: biochemical
Procedure: as §3

[10] = read-out: IC50 (μM) DLD-1 (24 h) Hypoxia nutrient (-), DLD-1, 24 h, hypoxia (1% oxygen), nutrient (-)
[11] = read-out: IC50 (μM) DLD-1 (24 h) Normoxia nutrient (+), DLD-1, 24 h, normoxia, nutrient (+)
[12] = DLD-1, 48 h, hypoxia (1% oxygen), nutrient (-), read-out: IC50 (μM) DLD-1 (48 h) Hypoxia nutrient (-)
[13] = DLD-1, 48 h, normoxia, nutrient (+), read-out: IC50 (μM) DLD-1 (48 h) Normoxia nutrient (+)

Row | SMILES | GI50 [1] | GI50 [2] | GI50 [3] | viability at 24 h, 100 µM [4] | IC50 [5, 10] | IC50 [5, 11] | IC50 [5, 12] | IC50 [5, 13] | GI50 [6] | GI50 [7] | IC50 [8] | IC50 [9] | IC50 fold lower than 1 ([5]; DLD-1, 24 h, hypoxia nutrient-deprived, versus compound 1) | selectivity ratio, microenvironment versus normal culture condition ([5]; hypoxia and nutrient-deprived versus normal culture)
1 | C/C(=C\Cc1c(O)c(Cl)c(C)c(C=O)c1O)CC/C=C(\C)[C@@H]1CC(=O)C(C)(C)O1 [Compound 1, ascofuranone] | 2 µM | 5.9 µM | 15 µM | ~80% | 1.2 ± 0.79 µM | > 100 µM | 0.24 ± 0.057 µM | > 100 µM | 5.9 µM | 17 µM | 13 ± 1.7 µM | 1.5 ± 0.04 µM | – | –
2 | CC(C)=CCC/C(C)=C/CC/C(C)=C/Cc1c(O)c(Cl)c(C)c(C=O)c1O [Compound 8] | 0.21 µM | 13 µM | 2.1 µM | – | 0.066 ± 0.042 µM | 81 ± 24 µM | 0.024 ± 0.003 µM | 38 ± 3.3 µM | 0.45 µM | 12 µM | 0.12 ± 0.013 µM | 0.048 ± 0.001 µM | 20 fold | over 1000 fold
